Consider 51 compounds from PubChem BioAssay AID1996.

The term kinetic solubility denotes solubility judged after dilution from a stock solution rather than from solid.

≈ marks a conversion by molar mass, not a printed value. Some results are limits rather than exact numbers.

The conditions of the series: buffer; pH 7.4; 200.0 µM.
Consider `Cc1ccc(Sc2ncnc3onc(C)c23)c(C)c1`, for which the solubility (kinetic) was 1.9 µg/mL (≈ 7 µM).

Take `CCCOc1ccc(/C=C2/C(=O)ON=C2C)cc1Cl`: the kinetic solubility was found to be 27.9 µg/mL (≈ 99.7 µM).

For the compound `CCOc1ccc(N(C)S(=O)(=O)c2ccc(C)c(C(=O)N3CCN(Cc4ccc5c(c4)OCO5)CC3)c2)cc1`, the kinetic solubility amounted to 15.2 µg/mL (≈ 27.6 µM).

In turn, `CSc1cccc(NC(=O)C(=O)NCc2ccccc2)c1` gave a solubility (kinetic) of less than 0.3 µg/mL.

As for `O=C(/C=C/c1ccco1)NC(=S)Nc1ccccc1`, the solubility (kinetic) came out at 17.2 µg/mL (≈ 63.2 µM).

Compound `COc1ccc(N=Cc2c(OC)ccc3ccccc23)cc1` yielded a kinetic solubility of 33.9 µg/mL (≈ 116 µM).

`COc1ccc(C(=O)c2ccccc2)c(OCC(=O)NC2CC2)c1` registered a kinetic solubility of 31.5 µg/mL (≈ 96.8 µM).

Consider `Cc1ccc(S(=O)(=O)NC(C)(C)CSc2ncccn2)cc1`, for which the kinetic solubility was more than 50.6 µg/mL.

In the case of `CCNC(=O)c1ccc(C23CC4CC(CC(C4)C2)C3)o1`, the solubility (kinetic) was less than 0.6 µg/mL.

In turn, `CC1Cc2ccccc2N1C(=O)c1ccc2nccnc2c1` (stereo unspecified) yielded a kinetic solubility of more than 43.4 µg/mL.

`O=C(CSc1ccccn1)NCc1ccc2c(c1)OCO2` displayed a kinetic solubility of more than 45.4 µg/mL.

Turning to `CCOc1c(Nc2ccc(C(C)C)cc2)c(=O)c1=O`, the solubility (kinetic) amounted to 25.3 µg/mL (≈ 97.6 µM).

Turning to `Cc1ccc(Nc2c([N+](=O)[O-])ccc3nonc23)cc1C`, the kinetic solubility is 0.4 µg/mL (≈ 1.41 µM).

Consider `COc1ccc(CC(C)CC(=O)Nc2ccc(OC)cc2)cc1` (stereo unspecified), for which the solubility (kinetic) was found to be 4.6 µg/mL (≈ 14.7 µM).

The compound `CC(Oc1ccc(C#N)cc1)C(=O)c1ccc(F)c(F)c1` (stereo unspecified) gave a kinetic solubility of 32.6 µg/mL (≈ 113 µM).

Regarding `CCC(=O)O/N=C(\N)c1ccc(Oc2cc(C)c(Cl)c(C)c2)c([N+](=O)[O-])c1`, the kinetic solubility is less than 0.3 µg/mL.

The compound `COc1cc(C)c(NC(=O)C(=S)NCc2ccccc2)cc1C` yielded a kinetic solubility of less than 0.4 µg/mL.

As to `COCc1[nH]c(=S)c(C#N)cc1C(=O)OC`, the kinetic solubility turned out to be 27.9 µg/mL (≈ 117 µM).

With `Cc1ccc(SCC(=O)Nc2ccc3c(c2)C(=O)N(C)C3=O)cc1`, the solubility (kinetic) worked out at 3.2 µg/mL (≈ 9.4 µM).

Consider `Oc1ccc(-c2csc(Nc3ccccn3)n2)cc1`, for which the kinetic solubility was 5.3 µg/mL (≈ 19.7 µM).

For `COc1ccc2nc(SCC(=O)NC3CC3)c(C#N)cc2c1`, the kinetic solubility is 0.8 µg/mL (≈ 2.55 µM).

Turning to `Cc1noc(C)c1C(=O)OC(C)C(=O)N(C)c1ccccc1` (stereo unspecified), the kinetic solubility is more than 45.3 µg/mL.

The compound `CCc1nnc(NC(=O)CSc2nc(C)cs2)s1` returned a kinetic solubility of more than 45.1 µg/mL.

Consider `CC(C)NS(=O)(=O)c1ccc(NC(=O)Cc2ccsc2)cc1`, for which the kinetic solubility was more than 50.8 µg/mL.

With `Cc1cc(NS(=O)(=O)c2ccc(NC(=O)Cc3ccc([N+](=O)[O-])cc3)cc2)nc(C)n1`, the kinetic solubility was more than 66.2 µg/mL.

As for `c1cnc2c(c1)ccc1cccnc12`, the kinetic solubility was more than 27 µg/mL.

Regarding `COc1ccc(NC(=O)CN2CCN(c3c(C)cc(C)cc3C)CC2)cc1`, the kinetic solubility worked out at 3.9 µg/mL (≈ 10.6 µM).

`CC(C)CNC(=O)c1cc(-c2ccc3c(c2)OCO3)on1`: the kinetic solubility came to 0.5 µg/mL (≈ 1.73 µM). This solubility kinetic lies about 7.8-fold lower than the previous one.

For `Cc1ccc(S(=O)(=O)N2CCn3cccc3C2C)cc1` (stereo unspecified), the solubility (kinetic) is more than 43.6 µg/mL.

As for `Cc1ccc(NC(=O)CCN2C(=O)c3ccccc3C2=O)c(C)c1`, the kinetic solubility came out at 4.9 µg/mL (≈ 15.2 µM).

For the compound `COc1cccc(CNC(=S)Nc2ccc(Cl)cc2C)c1`, the kinetic solubility is 5.5 µg/mL (≈ 17.1 µM).

With `CC1SC2(NC1=O)C1CC3CC(C1)CC2C3` (stereo unspecified), the solubility (kinetic) came to 3.4 µg/mL (≈ 14.3 µM).

Take `COC(=O)c1ccc(C)c(NC(=O)Cn2c(C)csc2=O)c1`: the solubility (kinetic) is more than 48.1 µg/mL.

In the case of `CC1CCC(C(=O)NC(C(=O)Nc2ccccn2)C(C)C)CC1` (stereo unspecified), the kinetic solubility is 13.5 µg/mL (≈ 42.5 µM).

`COc1ccc(/C=C/C(=O)OCC(=O)N2CCCCCC2)cc1OC` gave a solubility (kinetic) of 37.7 µg/mL (≈ 109 µM).

Compound `N#Cc1ccncc1S(=O)c1ccc(Cl)cc1` (stereo unspecified) came in with a solubility (kinetic) of more than 39.4 µg/mL.

With `CCN(CC)C(=O)Cc1ccccc1`, the solubility (kinetic) is more than 28.7 µg/mL.

For the compound `O=C(c1ccccc1)C1CCN(C(=O)c2cccs2)CC1`, the solubility (kinetic) was 38.9 µg/mL (≈ 130 µM).

In the case of `O=C(CN1CCCC1)Nc1c(Cl)cccc1Cl`, the solubility (kinetic) stood at 36.9 µg/mL (≈ 135 µM).

As to `Cc1cc(C)cc(N2CCCn3c2nc2c3c(=O)[nH]c(=O)n2C)c1`, the solubility (kinetic) is 3.3 µg/mL (≈ 10.1 µM). Compared with the last compound, the solubility kinetic is about 11-fold lower.

For the compound `O=C(Nc1ccc(O)cc1)/C(=C/c1ccco1)NC(=O)c1ccccc1`, the kinetic solubility was more than 52.3 µg/mL.

For the compound `O=S(=O)(Nc1ccccn1)c1ccc(Br)cc1`, the kinetic solubility stood at 37.9 µg/mL (≈ 121 µM).

The compound `CC1=C([N+](=O)[O-])C(c2ccc(Cl)cc2)NC(=O)N1C` (stereo unspecified) registered a kinetic solubility of 30.4 µg/mL (≈ 108 µM).

Compound `Cc1nc(C)c(C(=O)O)c(-c2ccsc2)c1C(=O)O` registered a kinetic solubility of more than 41.6 µg/mL.

`COc1cc(S(=O)(=O)NCCCn2ccnc2)ccc1F` showed a solubility (kinetic) of 46.2 µg/mL (≈ 147 µM).

On to `C=CCC(C=C)[N+]1(CC(=O)OC)CCCCC1.[Br-]` (stereo unspecified), for which the solubility (kinetic) was more than 47.7 µg/mL.

In the case of `Cc1cc2ccccn2c1C(=O)c1cccc([N+](=O)[O-])c1`, the kinetic solubility is 0.3 µg/mL (≈ 1.07 µM).

In the case of `COc1cccc(C(=O)Nc2cc(Cl)c(O)c(Cl)c2)c1`, the kinetic solubility is 15 µg/mL (≈ 48.1 µM).

`CC1CC(C)CN(C(=O)COC(=O)c2nccnc2N)C1` (stereo unspecified) came in with a solubility (kinetic) of more than 43.9 µg/mL.

Consider `O=c1cc(CSCc2ccc(Cl)cc2)[nH]c(=O)[nH]1`, for which the solubility (kinetic) came out at 41.3 µg/mL (≈ 146 µM).

In the case of `O=C(Nc1ccccc1-c1ccccc1)c1ccccc1Br`, the kinetic solubility was 33.7 µg/mL (≈ 95.7 µM). The solubility kinetic values of the last two compounds are within 1.5-fold of each other.
